Test [1] deals with Mus musculus. Nature of the test: Reduction in anandamide production in athymic CD-1 nude mouse xenografted with human U87 cells at 0.5 mg/mouse/day administered peritumorally for 5 days by RP-HPLC with fluorimetric detection method relative to control. Type of test: functional. Also noted: scale not given: the % may be the effect or the level left. In general terms: A xenograft is tissue or cells of one species grown in another, often human tumour cells in immunodeficient mice.

Test [2] concerns Mus musculus. Nature of the test: Reduction in LTB4 production in athymic CD-1 nude mouse xenografted with human U87 cells at 0.5 mg/mouse/day administered peritumorally for 5 days by RP-HPLC analysis relative to control. Type of test: functional. Also noted: scale not given: the % may be the effect or the level left.
In test [3] the target is Cannabinoid receptor 2 (Homo sapiens) (UniProt P34972). Nature of the test: Agonist activity at human CB2 receptor assessed as reduction in […] level at 20 uM incubated for 10 mins relative to control.
For test [4] the target is unchanged. In words: Agonist activity at human CB2 receptor assessed as inhibition of capsaicin-induced depolarization at 20 uM incubated for 10 mins relative to control.
For test [5], the species on record is Cavia porcellus. Nature of the test: Agonist activity at Dunkin Hartley guinea pig CB2 receptor assessed as reduction in […] level at 20 uM incubated for 10 mins relative to control.
The species named for test [6] is Cavia porcellus. Nature of the test: Agonist activity at Dunkin Hartley guinea pig CB2 receptor assessed as inhibition of capsaicin-induced depolarization at 20 uM incubated for 10 mins relative to control.
Test [7] can be described thus: Inhibition of IL1aplha-induced PGE2 production in bovine articular chondrocytes at 5 uM incubated for 48 hrs by ELISA relative to control. Type of test: functional. Particulars: Bos taurus. In general terms: ELISA stands for enzyme-linked immunosorbent assay.
Another test deals with J774. In words: Inhibition of LPS-induced PGE2 production in mouse J774 cells at 10 uM incubated for 24 hrs by enzyme immunoassay relative to control. Format: functional. Conditions: J774, 24 h.
The next test relates to Oryctolagus cuniculus. Nature of the test: Reduction in intraocular pressure in rabbit applied topically relative to control. Type of test: functional. Also on record: scale not given: the % may be the effect or the level left.

Chain of Cannabinoid receptor 2 (Homo sapiens) (P34972 whole entry): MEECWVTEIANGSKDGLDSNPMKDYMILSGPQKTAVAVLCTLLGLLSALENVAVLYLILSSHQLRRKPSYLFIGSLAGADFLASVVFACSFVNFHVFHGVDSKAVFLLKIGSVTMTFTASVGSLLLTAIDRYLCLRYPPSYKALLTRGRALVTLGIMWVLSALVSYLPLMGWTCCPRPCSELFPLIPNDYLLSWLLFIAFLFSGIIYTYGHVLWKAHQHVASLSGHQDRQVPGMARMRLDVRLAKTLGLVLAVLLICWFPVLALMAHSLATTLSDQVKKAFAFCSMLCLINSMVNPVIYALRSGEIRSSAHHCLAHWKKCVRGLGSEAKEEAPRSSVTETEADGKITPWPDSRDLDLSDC

On to `C=C(C)[C@@H]1CCC(C)=C[C@H]1c1c(O)cc(CCCCC)cc1O` [CANNABIDIOL], for which the values for the Activity in the test with Mus musculus [1] and with Mus musculus [2] were 30% and 25%, respectively.
For `O=C(NCc1ccncc1)c1cnc(Nc2cccc(Cl)c2)nc1C(F)(F)F`, the Imax (in test [3]; in test [4]; in the test listed under Cavia porcellus [5]; in the test filed under Cavia porcellus [6]) was 40% throughout.
By inhibition is commonly meant the drop in the measured response relative to a control, in per cent. `CCCCCCC(C)(C)c1cc(O)c2c(c1)OC(C)(C)[C@@H]1CCC(CO)=C[C@@H]21` had an inhibition at 5 µM in [7] of more than 50%.
With `Cc1c(C(=O)c2cccc3ccccc23)c2cccc3c2n1[C@H](CN1CCOCC1)CO3` [WIN-552122], in test [7], the inhibition at 5 µM is more than 50%.
On to `CCCCCc1cc(O)c2c(c1)OC(C)(C)[C@@H]1CCC(C)=C[C@@H]21` [DRONABINOL], for which at 10 µM the inhibition with J774 was 60%. The Activity with Oryctolagus cuniculus was 20 - 25%.

The record behind these values is ChEMBL document CHEMBL4387731, “Eicosanoid mediation of cannabinoid actions” (2019).
